Experimental data published in the supplement of paper PMC10307832.

Assays:
Experiment in all cases: relative viability (nuclei count vs DMSO), 5 days (fraction); higher = more cells survive
SGI-1776 + Alpelisib = compound: CN1CCC(CNc2ccc3ncc(-c4cccc(OC(F)(F)F)c4)n3n2)CC1 [SGI-1776] + Cc1nc(NC(=O)N2CCC[C@H]2C(N)=O)sc1-c1ccnc(C(C)(C)C(F)(F)F)c1 [Alpelisib] (partner 2 µM)
In short: (§1)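 Medians of duplicate plates are given as relative viability. That measure is the nuclei count in treated wells divided by the count in vehicle wells. Counts were taken on 4× images of lung cancer cell lines in 1536-well plates, 5 days after pin-tool dosing the day after seeding with one drug alone or a fixed anchor-drug dose plus five library-drug doses (not always all listed) in √10 steps.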

[1] = compound: C1COCCN1C2=NC(=NC3=C2OC4=C3C=CC=N4)C5=CC(=CC=C5)NC(=O)C6=CN=C(C=C6)N + O=C(c1cc(Cc2n[nH]c(=O)c3ccccc23)ccc1F)N1CCN(C(=O)C2CC2)CC1 [Olaparib] (partner 8 µM)
In short: as §1

SGI-1776 + Dasatinib = compound: CN1CCC(CNc2ccc3ncc(-c4cccc(OC(F)(F)F)c4)n3n2)CC1 [SGI-1776] + Cc1nc(Nc2ncc(C(=O)Nc3c(C)cccc3Cl)s2)cc(N2CCN(CCO)CC2)n1 [Dasatinib] (partner 0.075 µM)
In short: as §1

[2] = compound: C1COCCN1C2=NC(=NC3=C2OC4=C3C=CC=N4)C5=CC(=CC=C5)NC(=O)C6=CN=C(C=C6)N + C[C@]1(O)C[C@@H](c2nc(-c3ccc4ccc(-c5ccccc5)nc4c3)c3c(N)nccn32)C1 [Linsitinib] (partner 1 µM)
In short: as §1

| Cell Line | relative viability (SGI-1776 + Alpelisib; first compound 0.08 µM) | relative viability (SGI-1776 + Alpelisib; first compound 0.8 µM) | relative viability (SGI-1776 + Alpelisib; first compound 2.53 µM) | relative viability (SGI-1776 + Alpelisib; first compound 8 µM) | relative viability ([1]; first compound 0.02 µM) | relative viability ([1]; first compound 0.06325 µM) | relative viability ([1]; first compound 0.2 µM) | relative viability ([1]; first compound 0.6325 µM) | relative viability ([1]; first compound 2 µM) | relative viability (SGI-1776 + Dasatinib; first compound 0.08 µM) | relative viability (SGI-1776 + Dasatinib; first compound 0.8 µM) | relative viability (SGI-1776 + Dasatinib; first compound 2.53 µM) | relative viability (SGI-1776 + Dasatinib; first compound 8 µM) | relative viability ([2]; first compound 0.02 µM) | relative viability ([2]; first compound 0.06325 µM) | relative viability ([2]; first compound 0.2 µM) | relative viability ([2]; first compound 0.6325 µM) | relative viability ([2]; first compound 2 µM) |
| --- | --- | --- | --- | --- | --- | --- | --- | --- | --- | --- | --- | --- | --- | --- | --- | --- | --- | --- |
| NCI-H2170 | 0.858 | 0.835 | 0.697 | 0.635 | 0.736 | 0.652 | 0.528 | 0.624 | 0.41 | 0.651 | 0.527 | 0.354 | 0.434 |  |  |  |  |  |
| HCC-366 | 0.51 | 0.335 | 0.372 | 0.189 | 0.488 | 0.419 | 0.322 | 0.412 | 0.218 | 0.595 | 0.669 | 0.517 | 0.524 | 0.918 | 0.82 | 0.574 | 0.472 | 0.207 |
| NCI-H2405 | 0.865 | 0.766 | 0.739 | 0.383 | 0.856 | 0.862 | 0.874 | 0.891 | 0.659 | 0.225 | 0.195 | 0.178 | 0.166 | 0.828 | 0.946 | 0.97 | 0.905 | 0.795 |
| COR-L 105 | 1.13 | 1.05 | 1.03 | 0.759 | 0.71 | 0.649 | 0.607 | 0.671 | 0.63 | 0.343 | 0.323 | 0.284 | 0.254 | 0.984 | 1.03 | 0.822 | 0.905 | 0.672 |
| 201T | 1.02 | 1.03 | 1.08 | 0.999 | 0.854 | 0.879 | 0.837 | 0.923 | 0.458 | 0.603 | 0.555 | 0.47 | 0.471 | 1 | 1.01 | 1.05 | 0.981 | 0.97 |
| NCI-H2228 | 0.776 | 0.636 | 0.727 | 0.239 | 0.822 | 0.69 | 0.481 | 0.564 | 0.33 | 0.581 | 0.665 | 0.416 | 0.27 | 0.588 | 0.481 | 0.737 | 0.728 | 0.524 |
| LCLC-103H | 0.996 | 0.862 | 0.939 | 0.924 | 0.732 | 0.799 | 0.815 | 0.745 | 0.502 | 0.527 | 0.479 | 0.535 | 0.432 | 1.05 | 1.15 | 1.21 | 1.03 | 0.978 |
| NCI-H2087 | 1.1 | 1.06 | 1.18 | 0.997 | 0.582 | 0.62 | 0.546 | 0.636 | 0.32 | 0.782 | 1.09 | 0.826 | 0.595 | 0.988 | 0.883 | 0.985 | 0.969 | 0.573 |
| NCI-H358 | 0.786 | 0.837 | 0.751 | 0.405 | 0.7 | 0.662 | 0.552 | 0.579 | 0.372 | 0.197 | 0.186 | 0.158 | 0.133 | 0.671 | 0.827 | 0.674 | 0.721 | 0.584 |
| H3255 | 0.65 | 0.747 | 0.611 | 0.38 | 0.522 | 0.531 | 0.531 | 0.56 | 0.436 | 0.4 | 0.371 | 0.378 | 0.277 | 0.908 | 1.09 | 1.04 | 0.949 | 0.702 |
| NCI-H23 | 0.722 | 0.725 | 0.616 | 0.57 | 0.417 | 0.314 | 0.281 | 0.3 | 0.226 | 0.819 | 0.84 | 0.813 | 0.831 | 0.6 | 0.576 | 0.499 | 0.534 | 0.497 |
| CAL-12T | 1.23 | 1.37 | 1.66 | 1.08 | 0.66 | 0.727 | 0.69 | 0.764 | 0.569 | 0.633 | 0.351 | 0.348 | 0.246 | 0.622 | 0.813 | 0.886 | 0.782 | 0.584 |
| A-427 | 1.16 | 1.14 | 1.12 | 1.02 | 0.795 | 0.717 | 0.72 | 0.789 | 0.598 | 0.736 | 0.693 | 0.665 | 0.499 | 1.08 | 1.14 | 1.08 | 0.901 | 0.673 |
| HARA | 1.01 | 0.935 | 0.803 | 0.678 | 0.845 | 0.727 | 1.09 | 0.764 | 0.75 | 0.31 | 0.178 | 0.207 | 0.289 | 1.15 | 1.04 | 1.02 | 0.783 | 0.361 |
| NCI-H1793 | 0.807 | 0.808 | 0.974 | 0.602 | 0.831 | 0.884 | 0.968 | 0.769 | 0.508 | 0.395 | 0.332 | 0.382 | 0.405 | 0.953 | 0.845 | 0.834 | 0.911 | 0.475 |
| NCI-H1623 |  |  |  |  |  |  |  |  |  | 0.658 | 0.608 | 0.559 | 0.538 |  |  |  |  |  |
| NCI-H2023 | 0.595 | 0.546 | 0.546 | 0.414 | 0.587 | 0.519 | 0.379 | 0.463 | 0.316 | 0.637 | 0.523 | 0.432 | 0.254 | 0.639 | 0.755 | 0.602 | 0.543 | 0.333 |
| ABC-1 | 1.12 | 0.977 | 1.06 | 0.948 | 0.767 | 0.945 | 0.726 | 1.04 | 0.685 | 0.502 | 0.613 | 0.508 | 0.465 | 0.724 | 0.93 | 0.713 | 0.635 | 0.538 |
